Data as given in patent publication US10894087B2, “Multi-arm polymeric prodrug conjugates of cabazitaxel-based compounds” (Nektar Therapeutics, priority 2010, dated 2021).
Where two headings read alike, the source gives them in different places.

Key:
[1] = system: H460 non-small cell lung cancer (NSCLC) implants; conditions: for % TGD / Median TTE (Median Time to Endpoint) / TGD (tumor growth delay compared to vehicle) / CR (Number of Complete Regressions) / Deaths / PR (Number of Partial Regressions) / TFS (Number of Tumor Free Survivors) / MTV (Median Tumor Volume) / BW Nadir (d), day of nadir: iv; for % TGD / Median TTE (Median Time to Endpoint) / TGD (tumor growth delay compared to vehicle) / CR (Number of Complete Regressions) / Deaths / PR (Number of Partial Regressions) / TFS (Number of Tumor Free Survivors) / MTV (Median Tumor Volume): qwk x 3; for CR (Number of Complete Regressions) / Deaths / PR (Number of Partial Regressions) / TFS (Number of Tumor Free Survivors): N=10; for BW Nadir (d), day of nadir: mouse, in vivo
Description: Purpose. Studies were conducted to assess the growth inhibitory effects of PEGylated-conjugates of cabazitaxel on H460 non-small cell lung cancer (NSCLC) implants in athymic nu/nu mice.
Experimental plan. These studies were conducted using routine methods and materials that are familiar to those skilled in the art. Briefly, 8 to 12 week old female nu/nu mice were injected subcutaneously in the flank with 1×10^7 H460 tumor cells in 0.2 mL sterile buffer. […] Animals received three intravenous doses of test article at one week intervals beginning on day 1. Cabazitaxel solutions were prepared in D5W containing 5% Tween 80:10% ethanol. PEG-cabazitaxel conjugates were prepared in D5W. The administration volume for all test articles was 10 mL/kg. The test doses were selected to represent the MTD and ½ the MTD for each test compound. The tables list the actual mg/kg for each test article and the corresponding cabazitaxel equivalent calculated based on the weight-percent cabazitaxel content for each PEGylated conjugate.
Animals were weighed on days 1-5, 7, 9, 11, 13 then biweekly until the end of the study. Tumor sizes were measured using calipers biweekly throughout the study and tumor volumes were calculated using the formula for an ellipsoid sphere: L×W^2/2=mm^3, where L and W are the major axis dimensions of the tumor in mm. Additional parameters that were monitored were the number of non-specific deaths, number of partial and complete tumor regressions, number of tumor-free survivors, and the time required for individual animals' tumors to reach 2000 mm^3. The median time for a tumor to reach 2000 mm^3 in the treatment groups (T) and control group (C) was used to calculate of the overall delay in the growth of the median tumor (TGD). Animals were monitored individually until reaching the experimental endpoint: tumor size of 2000 mm^3 or 45 days, whichever came first. […] When the study endpoint was reached, the animals were euthanized.

[2] = Maximum tolerated dose (MTD) study of PEGylated conjugates of cabazitaxel in athymic mice; type: in vivo, female athymic nu/nu mice; conditions: qw x 3, iv; for Treatment-Related Deaths: N=5; for Estimated MTD, cabazitaxel equivalents: athymic nu/nu mice, guide value, not a definitive MTD
Description: Purpose. This study was performed to determine appropriate doses of each compound for tumor xenograft studies. In those studies, it is desirable to administer the maximum dose of test compound that will not cause excessive loss of body weight. In general, loss of ˜15% of the initial body weight of the animal is typically the maximum desired.
Experimental procedure. MTD for 4-arm-conjugated to cabazitaxel were determined in female athymic nu/nu mice using standard methods. Briefly, 8-12 week old mice were administered test compounds or cabazitaxel intravenously at one week intervals for a total of three doses per mouse (qw×3, iv) as shown in Tables 1 and 2. For all PEG-conjugated test compounds, the doses of both the conjugate and released cabazitaxel, calculated from the cabazitaxel content of the respective conjugate, are shown. […] PEG-cabazitaxel conjugates were prepared in D5W. […] Mice were observed daily for clinical signs and body weights were recorded on days 1-5 and then biweekly until the end of study. All procedures were conducted in compliance with IACUC requirements. […] For any group with two measurements of mean body weight loss of greater than 20%, dosing was stopped and recovery was allowed. Within a group with greater than 20% mean weight loss, individual animals greater than 30% body weight loss were euthanized. Compound dosing was terminated for any group in which mean weight loss exceeded 20% or >10% of animals died. Moribund animals were euthanized and all animals were euthanized at end of study (day 30).
Results. The results for the study MTD “20K Conjugates” are summarized in Table 3 and FIG. 1 while the results for the MTD “30K and 40K Conjugates” study are summarized Table 4 and FIG. 2. […] It should be noted that this is not meant to be a definitive MTD, but is simply a guide to select an appropriate dose for conducting tumor xenograft studies using this administration route and schedule. Note too, that these MTD are given as cabazitaxel equivalents. The actual dose of each conjugate must be corrected for the wt % of cabazitaxel in that specific conjugate.

[3] = mainly by the CYP3A4/5 isozyme; cited from earlier work
[4] = 20K conjugate xenograft study, 12.5 mg/kg cabazitaxel eq.
[5] = 20K conjugate xenograft study, 25 mg/kg cabazitaxel eq.
[6] = MTD study 20K conjugates, 7.5 mg/kg cabazitaxel eq.
[7] = MTD study 20K conjugates, 15 mg/kg cabazitaxel eq.
[8] = MTD study 20K conjugates, 30 mg/kg cabazitaxel eq.
[9] = 20K conjugate xenograft study, 15 mg/kg cabazitaxel eq.
[10] = 20K conjugate xenograft study, 30 mg/kg cabazitaxel eq.
[11] = 30K and 40K conjugate xenograft study, 15 mg/kg cabazitaxel eq.
[12] = 30K and 40K conjugate xenograft study, 30 mg/kg cabazitaxel eq.
[13] = MTD study 30K and 40K conjugates, 30 mg/kg cabazitaxel eq.

4-ARM-PEG20K-Butanoate-Linked Cabazitaxel Conjugate [4-arm-PEG20K-BA-Cabazitaxel]
Tumor growth inhibition compared with cabazitaxel and the other conjugates (in words) ([1]; 20K conjugate xenograft study): did not provide greater tumor growth inhibition than either cabazitaxel or the other PEG-cabazitaxel conjugates tested in this study
% TGD [1, 4]: 36%
Median TTE (Median Time to Endpoint) [1, 4]: 25.3 days
TGD (tumor growth delay compared to vehicle) [1, 4]: 6.7 days
CR (Number of Complete Regressions) [1, 4]: 0
Deaths [1, 4]: 0
PR (Number of Partial Regressions) [1, 4]: 0
TFS (Number of Tumor Free Survivors) [1, 4]: 0
% TGD [1, 5]: 112%
Median TTE (Median Time to Endpoint) [1, 5]: 39.3 days
TGD (tumor growth delay compared to vehicle) [1, 5]: 20.8 days
CR (Number of Complete Regressions) [1, 5]: 0
Deaths [1, 5]: 0
PR (Number of Partial Regressions) [1, 5]: 0
TFS (Number of Tumor Free Survivors) [1, 5]: 0
Treatment-Related Deaths [2, 6]: 0
BW Nadir [2, 7]: −1.3%
BW Nadir (day) [2, 7]: 2 days
Treatment-Related Deaths [2, 7]: 0
BW Nadir [2, 8]: −16.6%
BW Nadir (day) [2, 8]: 20 days
Treatment-Related Deaths [2, 8]: 0
Estimated MTD, cabazitaxel equivalents [2]: 25 mg/kg

4-ARM-PEG20K-Acetate-Linked Cabazitaxel [4-arm-PEG20K-CM-Cabazitaxel]
% TGD [1, 4]: 99%
Median TTE (Median Time to Endpoint) [1, 4]: 36.8 days
TGD (tumor growth delay compared to vehicle) [1, 4]: 18.3 days
CR (Number of Complete Regressions) [1, 4]: 0
Deaths [1, 4]: 0
PR (Number of Partial Regressions) [1, 4]: 0
TFS (Number of Tumor Free Survivors) [1, 4]: 0
% TGD [1, 5]: 154%
MTV (Median Tumor Volume) [1, 5]: 358 mm^3
TGD (tumor growth delay compared to vehicle) [1, 5]: 28.5 days
CR (Number of Complete Regressions) [1, 5]: 0
Deaths [1, 5]: 0
PR (Number of Partial Regressions) [1, 5]: 10
TFS (Number of Tumor Free Survivors) [1, 5]: 0
BW Nadir [2, 6]: −3.4%
BW Nadir (day) [2, 6]: 3 days
Treatment-Related Deaths [2, 6]: 0
BW Nadir [2, 7]: −2.0%
BW Nadir (day) [2, 7]: 3 days
Treatment-Related Deaths [2, 7]: 0
BW Nadir [2, 8]: −10.2%
BW Nadir (day) [2, 8]: 23 days
Treatment-Related Deaths [2, 8]: 0
Estimated MTD, cabazitaxel equivalents [2]: 25 mg/kg

CO[C@H]1C(=O)[C@]2(C)[C@@H](OC)C[C@H]3OC[C@@]3(OC(C)=O)[C@H]2[C@H](OC(=O)c2ccccc2)[C@]2(O)C[C@H](OC(=O)[C@H](O)[C@@H](NC(=O)OC(C)(C)C)c3ccccc3)C(C)=C1C2(C)C [Cabazitaxel, (2α,5β,7β,10β,13α-4-acetoxy-13-({(2R,3S)-3-[(tertbutoxycarbonyl)amino]-2-hydroxy-3-phenylpropanoyl}oxy)-1-hydroxy-7,10-dimethoxy-9-oxo-5,20-epoxytax-11-en-2-yl benzoate]
% TGD [1, 9]: 52%
MTV (Median Tumor Volume) [1, 9]: 1764 mm^3
Median TTE (Median Time to Endpoint) [1, 9]: 28.1 days
TGD (tumor growth delay compared to vehicle) [1, 9]: 9.6 days
CR (Number of Complete Regressions) [1, 9]: 0
Deaths [1, 9]: 0
PR (Number of Partial Regressions) [1, 9]: 0
TFS (Number of Tumor Free Survivors) [1, 9]: 0
% TGD [1, 10]: 154%
MTV (Median Tumor Volume) [1, 10]: 918 mm^3
TGD (tumor growth delay compared to vehicle) [1, 10]: 28.5 days
CR (Number of Complete Regressions) [1, 10]: 0
Deaths [1, 10]: 0
PR (Number of Partial Regressions) [1, 10]: 3
TFS (Number of Tumor Free Survivors) [1, 10]: 0
% TGD [1, 11]: 87%
Median TTE (Median Time to Endpoint) [1, 11]: 27.9 days
TGD (tumor growth delay compared to vehicle) [1, 11]: 13 days
CR (Number of Complete Regressions) [1, 11]: 0
Deaths [1, 11]: 0
PR (Number of Partial Regressions) [1, 11]: 0
TFS (Number of Tumor Free Survivors) [1, 11]: 0
% TGD [1, 12]: 208%
MTV (Median Tumor Volume) [1, 12]: 994 mm^3
TGD (tumor growth delay compared to vehicle) [1, 12]: 31.1 days
CR (Number of Complete Regressions) [1, 12]: 0
Deaths [1, 12]: 0
PR (Number of Partial Regressions) [1, 12]: 5
TFS (Number of Tumor Free Survivors) [1, 12]: 0
BW Nadir (d), day of nadir ([1]; 15 mg/kg): (22) d
BW Nadir (d), day of nadir ([1]; 30 mg/kg): (22) d
Extent metabolized in the liver [3]: > 95%
BW Nadir [2, 8]: −15.4%
BW Nadir (day) [2, 8]: 20 days
Treatment-Related Deaths [2, 8]: 0
BW Nadir [2, 13]: −6.8%
BW Nadir (day) [2, 13]: 21 days
Treatment-Related Deaths [2, 13]: 0
